Measured values as given in patent US6387329B1, “Use of an array of polymeric sensors of varying thickness for detecting analytes in fluids” (California Institute of Technology, priority 1998, dated 2002).

System: cytochrome P-450 aniline p-hydroxylation
Assay: inhibitory action of alcohols on cytochrome P-450 aniline p-hydroxylation (data of Cohen and Mannering)
Format: biochemical
Settings: versus the electronic nose QSAR and another QSAR on the cytochrome P-450 system
Description: To test the ability of the “electronic nose” to identify molecules of interest having a particular biological activity selected from a library of molecules of interest, a quantitative structure-activity relationship (QSAR) was used to predict the inhibitory action of a series of alcohols on cytochrome P-450 aniline p-hydroxylation.
The values are expressed as PI50, where I50 is the concentration of the alcohol (in mM) at which the activity of the enzyme is 50% inhibited, and PI50 is the negative logarithm of I50. More positive numbers correspond to more strongly inhibiting alcohols.

activity compared with QSAR prediction: higher activity than is predicted
Structure (SMILES): OCc1ccccc1 [benzyl alcohol]
